The subject of this test is Human Cav2.3 channel. Briefly: Human Cav2.3 channel calcium-influx assay. It is filed as cell-based. As to conditions: Fluo8 fluorescence, HEK-293 T-Rex/Kir2.1/Cav2.3e cells, without pluronic acid. As to the method: HEK-293 T-Rex cells were transfected with pcDNA3.1-Kir2.1 to generate a stable cell line. After antibiotic selection, the obtained stable pools were analysed using FLIPR^TETRA (membrane potential assay), and a limiting dilution was performed and a HEK-293 T-Rex/Kir2.1 clone was selected. The clone was transfected with pcDNA3.1-Cav2.3e and pBud-Cav-β4-α2δ1 to generate a stable cell line where the Cav2.3e expression is inducible. After antibiotic selection, functional clone pool analysis and two successive limiting dilutions, the final clone underwent a qPCR analysis and a biophysical and pharmacological validation using patch-clamp.
A compound plate, containing 10 test compounds in eight-points dose response with n=4, was prepared. Test compounds dose response curves were prepared in automated fashion in 100% DMSO at CyBio Felix and starting from a stock solution in 100% DMSO; a defined volume was serially moved into destination wells pre-filled with the desired DMSO volume; stock solution concentration volumes were dependent on the final compounds concentrations to be tested and the final DMSO content used in the assay. For the assay test compounds dose response curves ranged from 30 μM and half log dilution with 0.3% final DMSO. In order to obtain the 8-points dose response curve all the concentrations were created by starting from a 10 mM DMSO stock solution and then moving 9.5 μL into a destination well pre-filled with 20.5 μL of 100% DMSO and repeating this step seven times. This initial step was done into 96 MTP plates, 10 compounds/plate. One 384 MTP was then reformatted to contain all the 10 compounds at 8 concentrations, quadruplicate data points. This so obtained 384 MTP compound plate served as source plate in a “mother to child” process with a CyBi®-Well dispenser in which 0.7 μL of compounds were moved into a destination plate pre-filled with 57.6 μL of Tyrode's buffer 0 mM K+, thus obtaining 4× concentrated compounds solution. In columns 1-2 and 23-24 the control wells were added. Both “source” compound plate and “destination” compound plate were barcoded and a relationship between the two plates was thus generated.
The day before the experiment, cells were detached by gentle wash with DPBS, followed by 5 min incubation at 37° C. with Trypsin solution. Detached cells were diluted with OptiMEM+Doxycycline at 0.2 μg/mL, counted and plated in Poly-D-Lysine coated black/clear bottom (15.000 c/well in 20 μl/well) by the use of a MATRIX WellMate dispenser. Plates were placed into a humidified incubator at 37° C. with 5% CO2 until the experimental day. 24 h after seeding 10 μL/well of 1.5× Fluo8 NW dye solution prepared in Tyrode's buffer 0 mM K* were added on top of the seeding medium. Cell plates were incubated for 40-60 min at RT in the dark. We then Injected off-line 10 μL/well of test compounds and controls 4× concentrated in Tyrode's Buffer 0 mM K+ with the CyBi®-Well instrument. Cell plates were incubated 3 minutes at RT. Finally, we injected 20 μL/well of 3× concentrated activator solution (K20-Na130-Ca2 buffer: 20 mM KCl, 130 mM NaCl, 2 mM CaCl2, 10 mM HEPES, 10 mM Glucose, final concentrations, prepared starting from “K0-Na150-Ca2” and “K150-Na0-Ca2” buffers) at FDSS7000EX instrument and read emitted fluorescence for 130 seconds.
Data analysis was performed with Genedata Screener® software and reported compounds activity as % effect in relation to the normalization standards. The Kinetic Response Value (KRV) is calculated as follows:
KRV=Maximal fluorescence recorded from second 5 to second 130 minus baseline fluorescence, computed as average from second 1 to second 2, of the kinetic trace. The KRV was normalized versus Neutral Controls and Inhibitor Controls in order to obtain the Activity[%] for each well. […] Therefore, the compound activity values were scaled (based on the two references) to a common range (two-point normalization). […]
For `CCN(C(c1cccc(C(F)(F)F)c1)C(F)(F)F)S(=O)(=O)c1cncc(C#N)c1` (stereo not drawn) [Example 85, 5-Cyano-N-ethyl-N-(2,2,2-trifluoro-1-(3-(trifluoromethyl)phenyl)ethyl)pyridine-3-sulfonamide], the “Cav2.3 (pIC50)” value worked out at 6.34.

In the case of `CN([C@H](c1ccc(C(F)(F)F)cc1)C(F)(F)F)S(=O)(=O)c1ccc2ncc(Cl)n2c1` [Example 233, (R)-3-chloro-N-methyl-N-(2,2,2-trifluoro-1-(4-(trifluoromethyl)phenyl)ethyl)imidazo[1,2-a]pyridine-6-sulfonamide], the “Cav2.3 (pIC50)” value was determined as 5.91. To `CCN([C@@H](c1ccccc1OC)C(F)(F)F)S(=O)(=O)c1cncc(C#N)c1` [Example 108, (S)-5-cyano-N-ethyl-N-(2,2,2-trifluoro-1-(2-methoxyphenyl)ethyl)pyridine-3-sulfonamide] belongs 4.30; to `CN([C@H](c1ccc(C(F)(F)F)cc1)C(F)(F)F)S(=O)(=O)c1ccc2nccn2c1` [Example 234, (R)—N-methyl-N-(2,2,2-trifluoro-1-(4-(trifluoromethyl)phenyl)ethyl)imidazo[1,2-a]pyridine-6-sulfonamide], 6.38.

Regarding `CCN([C@H](c1ccc(F)cc1)C(F)(F)F)S(=O)(=O)c1ccc(C)s1` [Example 10, (R)—N-ethyl-5-methyl-N-(2,2,2-trifluoro-1-(4-fluorophenyl)ethyl)thiophene-2-sulfonamide], the “Cav2.3 (pIC50)” value turned out to be 5.66. Under `CCN([C@H](c1ccc(F)cc1)C(F)(F)F)S(=O)(=O)c1csc(C#N)c1` (stereo in doubt) [Example 43, 5-Cyano-N-ethyl-N-(2,2,2-trifluoro-1-(4-fluorophenyl)ethyl)thiophene-3-sulfonamide] stands 6.69. For the compound `CCN(C(c1ccc(F)cc1)C(F)(F)F)S(=O)(=O)c1cncc(N2CCCC2)c1` (stereo not drawn) [Example 94, N-ethyl-5-(pyrrolidin-1-yl)-N-(2,2,2-trifluoro-1-(4-fluorophenyl)ethyl)pyridine-3-sulfonamide], the “Cav2.3 (pIC50)” value stood at 5.85.

As to `CCN([C@@H](c1ccc(F)cc1)C(F)(F)F)S(=O)(=O)c1cncc(C#N)c1` [Example 34, (S)-5-cyano-N-ethyl-N-(2,2,2-trifluoro-1-(4-fluorophenyl)ethyl)pyridine-3-sulfonamide], the “Cav2.3 (pIC50)” value stood at 6.20. `CCN([C@H](c1ccc(F)c(OC)c1)C(F)(F)F)S(=O)(=O)c1cncc(C#N)c1` [Example 259, (R)-5-cyano-N-ethyl-N-(2,2,2-trifluoro-1-(4-fluoro-3-methoxyphenyl)ethyl)pyridine-3-sulfonamide]: the “Cav2.3 (pIC50)” value stood at 6.61. Under `CCN([C@@H](c1ccc(F)cc1)C(F)(F)F)S(=O)(=O)c1ccc2c(c1)COC2` [Example 37, (S)—N-ethyl-N-(2,2,2-trifluoro-1-(4-fluorophenyl)ethyl)-1,3-dihydroisobenzofuran-5-sulfonamide] stands 4.87. To `CCN(C(c1ccc(F)cc1)C(F)(F)F)S(=O)(=O)c1cc(C)c(Cl)s1` (stereo not drawn) [Example 31, 5-chloro-N-ethyl-4-methyl-N-(2,2,2-trifluoro-1-(4-fluorophenyl)ethyl)thiophene-2-sulfonamide] belongs 6.43; to `Cc1ncc(S(=O)(=O)N(C)[C@H](c2ccc(F)cc2)C(F)(F)F)cn1` [Example 78, (R)—N,2-dimethyl-N-(2,2,2-trifluoro-1-(4-fluorophenyl)ethyl)pyrimidine-5-sulfonamide], 5.69; to `CCN([C@@H](c1cccc(F)c1)C(F)(F)F)S(=O)(=O)c1cncc(C#N)c1` [Example 112, (S)-5-cyano-N-ethyl-N-(2,2,2-trifluoro-1-(3-fluorophenyl)ethyl)pyridine-3-sulfonamide], 5.95.

As to `CCN(C(c1ccc(F)cc1)C(F)(F)F)S(=O)(=O)c1ccc2c(c1)OCC2` (stereo not drawn) [Example 39, N-ethyl-N-(2,2,2-trifluoro-1-(4-fluorophenyl)ethyl)-2,3-dihydrobenzofuran-6-sulfonamide], the “Cav2.3 (pIC50)” value stood at 5.82.

Take `CCN(C(c1ccc(F)cc1)C(F)(F)F)S(=O)(=O)c1ccn2ccnc2c1` (stereo not drawn) [Example 135, N-ethyl-N-(2,2,2-trifluoro-1-(4-fluorophenyl)ethyl)imidazo[1,2-a]pyridine-7-sulfonamide]: the “Cav2.3 (pIC50)” value turned out to be 6.76. Under `CN([C@@H](c1ccc(F)cc1)C(F)(F)F)S(=O)(=O)C1CCOCC1` [Example 131, (S)—N-methyl-N-(2,2,2-trifluoro-1-(4-fluorophenyl)ethyl)tetrahydro-2H-pyran-4-sulfonamide] stands 5.12. Take `CN([C@H](c1ccc(F)cc1)C(F)(F)F)S(=O)(=O)c1ccc(C#N)s1` [Example 6, (R)-5-cyano-N-methyl-N-(2,2,2-trifluoro-1-(4-fluorophenyl)ethyl)thiophene-2-sulfonamide]: the “Cav2.3 (pIC50)” value stood at 6.22. Under `CCN([C@@H](c1ccc(F)cc1)C(F)(F)F)S(=O)(=O)c1ccc(F)s1` [Example 15, (S)—N-ethyl-5-fluoro-N-(2,2,2-trifluoro-1-(4-fluorophenyl)ethyl)thiophene-2-sulfonamide] stands 4.94; under `CCN(C(c1ccc(F)cc1)C(F)(F)F)S(=O)(=O)c1cnc(C)c(C#N)c1` (stereo not drawn) [Example 55, 5-cyano-N-ethyl-6-methyl-N-(2,2,2-trifluoro-1-(4-fluorophenyl)ethyl)pyridine-3-sulfonamide], 6.33; under `CCN([C@@H](c1ccc(F)c(Cl)c1)C(F)(F)F)S(=O)(=O)c1cncc(C#N)c1` [Example 253, (S)—N-(1-(3-chloro-4-fluorophenyl)-2,2,2-trifluoroethyl)-5-cyano-N-ethylpyridine-3-sulfonamide], 5.56. Under `CCN([C@@H](c1cccc(Cl)c1)C(F)(F)F)S(=O)(=O)c1cncc(C#N)c1` [Example 252, (S)—N-(1-(3-chlorophenyl)-2,2,2-trifluoroethyl)-5-cyano-N-ethylpyridine-3-sulfonamide] stands 5.71. As for `CCN([C@@H](c1ccc(F)cc1)C(F)(F)F)S(=O)(=O)c1csc(C#N)c1` (stereo in doubt) [Example 44, 5-cyano-N-ethyl-N-(2,2,2-trifluoro-1-(4-fluorophenyl)ethyl)thiophene-3-sulfonamide], the “Cav2.3 (pIC50)” value is 5.23. Under `CCN([C@H](c1ccc(F)cc1)C(F)(F)F)S(=O)(=O)c1ccc2c(c1)COC2` [Example 38, (R)—N-ethyl-N-(2,2,2-trifluoro-1-(4-fluorophenyl)ethyl)-1,3-dihydroisobenzofuran-5-sulfonamide] stands 6.91; under `Cc1ncc(S(=O)(=O)N(C)C(c2ccc(F)cc2)C(F)(F)F)cn1` (stereo not drawn) [Example 74, N,2-dimethyl-N-(2,2,2-trifluoro-1-(4-fluorophenyl)ethyl)pyrimidine-5-sulfonamide], 5.83. To `CN([C@H](c1ccc(C(F)(F)F)cc1)C(F)(F)F)S(=O)(=O)c1cncc(F)c1` [Example 224, (R)-5-fluoro-N-methyl-N-(2,2,2-trifluoro-1-(4-(trifluoromethyl)phenyl)ethyl)pyridine-3-sulfonamide] belongs 6.85; to `CCN([C@H](c1ccc(F)cc1)C(F)(F)F)S(=O)(=O)c1ccc2cn[nH]c2c1` [Example 159, (R)—N-ethyl-N-(2,2,2-trifluoro-1-(4-fluorophenyl)ethyl)-1H-indazole-6-sulfonamide], 6.33; to `COc1ccc(S(=O)(=O)N(C)[C@H](c2ccc(Cl)cc2)C(F)(F)F)nn1` [Example 207, (R)—N-(1-(4-chlorophenyl)-2,2,2-trifluoroethyl)-6-methoxy-N-methylpyridazine-3-sulfonamide], 6.02.

(Values after patent US20250115569A1, “SULFONAMIDE COMPOUNDS FOR THE TREATMENT OF NEUROLOGICAL CONDITIONS” (LARIO THERAPEUTICS LIMITED, priority 2021, published 2025).)
